Drawing on BindingDB's records for doi:10.1021/jm00126a016 (G. D. Searle, 1989), this text covers IC50 for 8 molecules.

The target of this test is Glutamate receptor ionotropic NMDA, PCP site (Rattus norvegicus). The test is described as follows: Inhibition of [3H]1-[1-(2-thienyl) piperidine ([3H]TCP) binding to phencyclidine receptor.

Turning to `Clc1ccc(C2NCCc3ccccc32)cc1` (stereo not drawn), the concentration for half-maximal inhibition (IC50) was found to be 5.3 µM.

In the case of `CC1Cc2ccccc2C(C)N1` (stereo not drawn), the IC50 was above 30 µM.

Take `CN1CCc2ccccc2C1`: the IC50 was above 30 µM.

`c1ccc2c(c1)CCNC2c1ccc2ccccc2c1` (stereo not drawn) displayed a concentration for half-maximal inhibition (IC50) above 30 µM.

As for `CC(C)C1NCCc2ccccc21` (stereo not drawn), the half-inhibitory concentration (IC50) stood at 11 µM.

`Fc1ccc(C2NCCc3ccccc32)cc1` (stereo not drawn) had an IC50 of 4.9 µM.

Molecule `c1ccc(C2NCc3ccccc32)cc1` (stereo not drawn) yielded an IC50 above 30 µM.

Turning to `C=CCN1C(C)Cc2ccccc2C1C` (stereo not drawn), the concentration for half-maximal inhibition (IC50) was determined as 5.4 µM.

A word on the IC50: it is the point on the concentration scale where inhibition reaches its midpoint. A lower IC50 goes with greater potency.
